Legend:
[1] = tested on: human promyelocytic leukemia cells; conditions: Jang et al., Science 275: 218-220, 1997; cited from earlier work
[2] = Cell viability of B16 cells by neutral red dye uptake; type: cell-based; conditions: mouse, b16 f1 cells
Experimental: In order to ensure that melanin inhibition was not simply due to cell killing, cell viability was assessed by neutral red dye uptake. After the removal of media, 200 μL of pre-warmed medium containing 25 μg/ml neutral red dye was added to each well and incubated for 3 hours. Cells were washed 2× with PBS. The dye was extracted by adding […] of 50 H2O: 49 ethanol: 1 acetic acid and then gently shaken at room temperature for 20 minutes. The dye was quantified by reading the absorbance at 530 nm. Only viable cells are expected to take up the dye and the absorbance is directly proportional to the number of viable cells surviving the treatment.
(§1) For each treatment, the average of four replicate readings was calculated and expressed as percent of the average for the untreated control.

B16 F1 cells = test: Melanin production by B16 cells; type: cell-based
Experimental: B16 F1 cells were purchased from ATCC (Rockville, Md.) Subconfluent B16 cells were seeded in 96 well microtiter plates at a density of 5000 cells/well and cultured overnight in DMEM (Life Technologies, NY) containing 10% Fetal Bovine Serum, 1% penicillin/streptomycin without phenol red) at 37° C. under 5% CO2. After 24 hours, the media was replaced with fresh media containing the treatments. Cells were incubated for 72 hours at which time melanin was visible in the control treatment. Next, the melanin containing media from each well was transferred to a clean 96 well plate and quantified by reading the absorbance at 530 nm using a microplate Spectrophotometer.
as §1
The lower the % melanin value (with a viability value of >50%), the better the skin lightening potential.

Compound: Oc1ccc(/C=C/c2cc(O)cc(O)c2)cc1 [Resveratrol, 3,4'5-stilbenetriol]
- differentiation of human promyelocytic leukemia cells [1]: induce differentiation of human promyelocytic leukemia cells
- viability at 72 h, 10 µM ([2]; 10 μM): 94.6%
- viability at 72 h, 25 µM ([2]; 25 μM): 86.8%
- viability at 72 h, 50 µM ([2]; 50 μM): 69.2%
- viability at 72 h, 100 µM ([2]; 100 μM): 1.8%
- activity at 10 µM (B16 F1 cells; Mus musculus, B16-F1, 10 μM, 72 hours): 80%
- activity at 25 µM (B16 F1 cells; Mus musculus, B16-F1, 25 μM, 72 hours): 4%
- activity at 50 µM (B16 F1 cells; Mus musculus, B16-F1, 50 μM, 72 hours): 3.9%
- activity at 100 µM (B16 F1 cells; Mus musculus, B16-F1, 100 μM, 72 hours): 6.6%
- melanin production by skin cells (B16 F1 cells; all concentrations tested where viability was greater than 50%): inhibited melanin production by skin cells
